The nature of data set [1]: Toxicity in Swiss albino mouse assessed as absolute and relative spleen weight at 5 to 300 mg/kg, po administered as single dose. The data set is classed as organism-based. The note with it: in vivo, dose 5-300 mg/kg.
The target of data set [2] is DNA topoisomerase 2-alpha (Homo sapiens) (UniProt P11388). Nature of the data set: Inhibition of DNA-topoisomerase 2 in human MCF7 cells using kinetoplast DNA as substrate measured by ELISA. The note with it: dose 4.33-17.32 µM. The data set is classed as cell-based. For orientation: ELISA stands for enzyme-linked immunosorbent assay.
The nature of data set [3]: Toxicity in Swiss albino mouse assessed as WBC level in blood at 50 mg/kg, po administered as single dose (reference value: 17.06 +/- 1.33x10^3/mm3). The note with it: in vivo. It counts as organism-based.
The test system of data set [4] is MCF7. Kind of data set: Antiproliferative activity against human MCF-7 cells assessed as proportion of dead cells at 50 ug/ml measured after 3 weeks by crystal violet staining based soft agar colony formation assay. It counts as functional. The note with it: dose 50 µg/ml.
Data set [5] can be described thus: Toxicity in Swiss albino mouse assessed as SGOT level in serum at 50 mg/kg, po administered as single dose (reference value: 22.12 +/-1.91 U/L). The data set is classed as organism-based. The note with it: in vivo.
In data set [6] the test system is MCF7. Kind of data set: Induction of cell cycle arrest in human MCF-7 cells assessed as accumulation at G2/M phase at 2.17 uM by propidium iodide staining based flow cytometry (reference value: 15.2%). The data set is classed as functional. A general note: Flow cytometry measures light scatter and fluorescence of single cells or particles in a stream.
Data set [7] deals with MDA-MB-231. Nature of the data set: Induction of cell cycle arrest in human MDA-MB-231 cells assessed as accumulation at S phase at 10.42 uM by propidium iodide staining based flow cytometry (reference value: 11.35 +/- 0.07%). It counts as functional.
Data set [8] concerns MCF7. Nature of the data set: Induction of cell cycle arrest in human MCF-7 cells assessed as accumulation at G0/G1 phase at 8.66 uM by propidium iodide staining based flow cytometry (reference value: 74.5%). The data set is classed as functional.
Data set [9] has as its system MCF7. Kind of data set: Induction of apoptosis in human MCF-7 cells assessed as proportion of early apoptotic cells at 8.66 uM measured after 24 hrs by Annexin V- FITC/propidium iodide staining based flow cytometry (reference value: 0%). The data set is classed as functional.
In data set [10] the test system is THP-1. Kind of data set: Antiproliferative activity against human THP-1 cells assessed as inhibition of cell growth measured after 48 hrs by SRB assay. The note with it: THP-1, 48 h. It counts as functional, cell-based. (In general: Sulforhodamine B stains cellular protein and so reports cell mass.)
Data set [11] is described as follows: Toxicity in Swiss albino mouse assessed as ALP level in serum at 5 mg/kg, po administered as single dose (reference value: 195.8 +/-12.06 U/L). It counts as organism-based. The note with it: in vivo.
Data set [12] is described as follows: Toxicity in Swiss albino mouse assessed as body weight at 300 mg/kg, po administered as single dose (reference value: 31.62 +/- 1.64 gms). The data set is classed as organism-based. The note with it: in vivo.

The results in this text go back to ChEMBL document CHEMBL4680139, “Antiproliferative activity of diarylnaphthylpyrrolidine derivative via dual target inhibition” (Eur J Med Chem, 2020).

What is called IC50 is the concentration that inhibits the measured activity by half.

DNA topoisomerase 2-alpha (Homo sapiens), sequence (P11388 whole entry): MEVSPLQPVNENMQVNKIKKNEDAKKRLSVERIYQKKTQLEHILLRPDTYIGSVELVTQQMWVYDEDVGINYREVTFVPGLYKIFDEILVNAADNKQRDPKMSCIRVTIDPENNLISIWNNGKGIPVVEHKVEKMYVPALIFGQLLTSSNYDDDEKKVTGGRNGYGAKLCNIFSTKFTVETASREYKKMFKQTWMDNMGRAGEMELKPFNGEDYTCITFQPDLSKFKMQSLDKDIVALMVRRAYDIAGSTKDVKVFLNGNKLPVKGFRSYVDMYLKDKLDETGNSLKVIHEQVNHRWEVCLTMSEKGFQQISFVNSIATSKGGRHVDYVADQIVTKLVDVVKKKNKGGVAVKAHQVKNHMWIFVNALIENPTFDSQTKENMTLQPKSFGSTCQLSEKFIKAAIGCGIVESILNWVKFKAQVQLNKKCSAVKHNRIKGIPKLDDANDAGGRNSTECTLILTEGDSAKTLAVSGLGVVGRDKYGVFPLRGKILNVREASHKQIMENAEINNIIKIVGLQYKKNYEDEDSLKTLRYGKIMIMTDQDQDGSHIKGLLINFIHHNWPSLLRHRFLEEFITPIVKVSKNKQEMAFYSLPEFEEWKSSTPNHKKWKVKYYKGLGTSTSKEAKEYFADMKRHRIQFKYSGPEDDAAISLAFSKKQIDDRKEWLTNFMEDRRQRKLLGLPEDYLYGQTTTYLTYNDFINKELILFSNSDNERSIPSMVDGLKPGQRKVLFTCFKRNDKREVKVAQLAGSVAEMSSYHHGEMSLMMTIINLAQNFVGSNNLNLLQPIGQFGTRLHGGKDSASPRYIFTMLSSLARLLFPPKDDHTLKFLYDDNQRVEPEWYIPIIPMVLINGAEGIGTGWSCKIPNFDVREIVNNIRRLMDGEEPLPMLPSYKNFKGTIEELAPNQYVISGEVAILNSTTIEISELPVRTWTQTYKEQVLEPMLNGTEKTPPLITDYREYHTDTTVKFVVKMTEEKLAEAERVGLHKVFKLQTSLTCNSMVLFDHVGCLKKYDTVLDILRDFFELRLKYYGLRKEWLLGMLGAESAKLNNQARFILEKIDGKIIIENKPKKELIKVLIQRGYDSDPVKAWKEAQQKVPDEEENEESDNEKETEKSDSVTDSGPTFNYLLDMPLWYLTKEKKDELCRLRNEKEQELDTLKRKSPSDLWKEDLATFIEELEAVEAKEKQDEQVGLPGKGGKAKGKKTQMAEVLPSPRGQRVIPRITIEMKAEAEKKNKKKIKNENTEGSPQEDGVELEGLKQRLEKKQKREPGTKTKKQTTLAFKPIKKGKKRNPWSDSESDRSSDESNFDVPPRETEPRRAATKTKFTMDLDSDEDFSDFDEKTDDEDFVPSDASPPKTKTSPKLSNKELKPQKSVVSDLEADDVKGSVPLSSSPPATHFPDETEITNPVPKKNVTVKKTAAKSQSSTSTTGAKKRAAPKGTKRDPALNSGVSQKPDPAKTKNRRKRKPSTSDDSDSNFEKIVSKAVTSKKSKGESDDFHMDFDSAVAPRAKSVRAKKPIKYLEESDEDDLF

Regarding `COc1ccc(C(c2ccccc2OCCN2CCCC2)c2cccc3ccccc23)c(OC)c1OC` (configuration not stated), the Activity entry in data set [1] was “Non-Toxic”; in [3], 13.46 10^3/mm3; in data set [4], 87.02%; in data set [5] it was 25.42 U/L; in [6], 12.1%; in data set [7], 11.35%. Further, the Activity in data set [8] is 66.5%; in [9], 0%; in [11], 198.57 U/L; in data set [12] it was 31.03 g. In data set [2], the inhibition entry was “Dose-dependent effect”. Besides, the IC50 in data set [10] came out at 12.6 µM.
